Values quoted from earlier work in patent US20110171138A1, “SUBSTANTIALLY PURE DEFERASIROX AND PROCESSES FOR THE PREPARATION THEREOF” (ACTAVIS GROUP PTC EHF, priority 2008, published 2011).

Details: in water and in acid medium; the solubility increasing with pH

For `O=C(O)c1ccc(-n2nc(-c3ccccc3O)nc2-c2ccccc2O)cc1` [Deferasirox, 4-[3,5-Bis(2-hydroxyphenyl)-1H-1,2,4-triazol-1-yl]benzoic acid], the solubility is given as “practically insoluble”.
